Measured values: patent publication US10526287B2, “LSD1 inhibitors and uses thereof” (Constellation Pharmaceuticals, Inc., priority 2015, dated 2020)
Structures can show the parent of a compound that is named as a salt. Where two headings read alike, the source gives them in different places.

Molecular target: LSD1 (Homo sapiens, UniProt O60341)
Experiment: Biochemical assay for LSD1 activity (LSD1 demethylase TR-FRET)
Conditions: biotinylated H3K4me1 peptide, 50 minutes at room temperature, TR-FRET, read-out: LSD1_Pep_TR-FRET_1.0 (IC50 T50)

Question: How did the IC50 (Table 7) turn out when `CC/C(=C\c1ccccc1)[C@@H]1C[C@H]1NC[C@H]1C[C@H](NCc2ccc(C(=O)O)cc2)C1` (racemic) [Compound 236] was run?
Answer: < 100 nM

Question: `CC/C(=C\c1ccccc1)[C@@H]1C[C@H]1N[C@H]1CC[C@H](NCC(=O)O)CC1` (racemic) [Compound 182, 2-(((trans)-4-(((trans)-2-((E)-1-phenylbut-1-en-2-yl)cyclopropyl)amino)cyclohexyl)amino)acetic acid] was tested. Which IC50 (Table 6) did it give?
Answer: < 100 nM

Question: With `CC/C(=C\c1ccccc1)[C@@H]1C[C@H]1N[C@H]1CC[C@H](NCCOCC(=O)O)CC1` (single isomer, unassigned) [Compound 162, 2-(2-(((trans)-4-(((trans)-2-((E)-1-phenylbut-1-en-2-yl)cyclopropyl)amino)cyclohexyl)amino)ethoxy)acetic acidbis(trifluoroacetic acid salt)] as the molecule, how does the IC50 (Table 6) read?
Answer: < 100 nM

Question: Which IC50 (Table 6) does the source give for `CC/C(=C\c1ccccc1)[C@@H]1C[C@H]1NC1CCC(NCc2cnn(CC(=O)O)c2)CC1` (mixture of isomers) [Compound 210, 2-(4-(((4-(((trans)-2-((E)-1-phenylbut-1-en-2-yl)cyclopropyl)amino)cyclohexyl)amino)methyl)-1H-pyrazol-1-yl)acetic Acid Dihydrochloride] here?
Answer: 100 to 1000 nM

Question: How did the IC50 (Table 6) turn out when `CC(C)/C(=C\c1ccccc1)[C@H]1C[C@@H]1N[C@H]1CC[C@H](N)CC1` (racemic) [Compound 178, (trans)-N^1-((trans)-2-(E)-3-methyl-1-phenylbut-1-en-2-yl)cyclopropyl)cyclohexane-1,4-diamine Dihydrochloride] was run?
Answer: < 100 nM

Question: For `CC/C(=C\c1ccccc1)[C@@H]1C[C@H]1NC1CC2(CCN(Cc3ccc(C(=O)O)cc3)CC2)C1` (racemic) [Compound 227, 4-((2-(((trans)-2-((E)-1-phenylbut-1-en-2-yl)cyclopropyl)amino)-7-azaspiro[3.5]nonan-7-yl)methyl)benzoic acid dihydrochloride], which IC50 (Table 7) is on record?
Answer: < 100 nM

Question: For `CC/C(=C\c1ccccc1)[C@@H]1C[C@H]1NCCC1CN(Cc2ccc(C(=O)O)cc2)C1` (racemic) [Compound 241], which IC50 (Table 7) is on record?
Answer: < 100 nM

Question: Which IC50 (Table 6) does the source give for `CC/C(=C\c1ccccc1)[C@@H]1C[C@H]1N[C@H]1CC[C@@H](NCc2ccc(C(=O)O)cc2)CC1` (racemic) [Compound 176, 4-((((trans)-4-(((trans)-2-((E)-1-phenylbut-1-en-2-yl)cyclopropyl)amino)cyclohexyl)amino)methyl)benzoic Acid Dihydrochloride] here?
Answer: < 100 nM

Question: How did the IC50 (Table 7) turn out when `CC/C(=C\c1ccccc1)[C@@H]1C[C@H]1NCc1cnn(C2CNC2)c1` (racemic) [Compound 242] was run?
Answer: < 100 nM

Question: With `CC/C(=C\c1ccccc1)[C@@H]1C[C@H]1N[C@H]1CC[C@@H](N(C)CCC(=O)O)CC1` (racemic) [Compound 213, 3-(methyl((cis)-4-(((trans)-2-((E)-1-phenylbut-1-en-2-yl)cyclopropyl)amino)cyclohexyl)amino)propanoic Acid Dihydrochloride] as the molecule, how does the IC50 (Table 6) read?
Answer: 100 to 1000 nM

Question: With `C/C(=C\c1ccccc1)[C@@H]1C[C@H]1NC1CCN(CCO)CC1` (racemic) [Compound 201, 2-(4-(((trans)-2-((E)-1-phenylprop-1-en-2-yl)cyclopropyl)amino)piperidin-1-yl)ethan-1-ol Dihydrochloride] as the molecule, how does the IC50 (Table 6) read?
Answer: < 100 nM

Question: With `CC/C(=C\c1ccccc1)[C@@H]1C[C@H]1N[C@H]1CC[C@H](NCCCC(=O)O)CC1` (relative stereo) [Compound 180, 4-(((trans)-4-(((trans)-2-((E)-1-phenylbut-1-en-2-yl)cyclopropyl)amino)cyclohexyl)amino)butanoic Acid bis(trifluoroacetic Acid) Salt] as the molecule, how does the IC50 (Table 6) read?
Answer: < 100 nM

Question: With `C/C(=C\c1ccccc1)[C@@H]1C[C@H]1NC1CCN(CC(N)=O)CC1` (racemic) [Compound 196, 2-(4-(((trans)-2-((E)-1-phenylprop-1-en-2-yl)cyclopropyl)amino)piperidin-1-yl)acetamide Dihydrochloride] as the molecule, how does the IC50 (Table 6) read?
Answer: < 100 nM

Question: How did the IC50 (Table 6) turn out when `C/C(=C\c1ccccc1)[C@@H]1C[C@H]1NC1CCN(CCC(=O)O)CC1` (racemic) [Compound 199, 3-(4-(((trans)-2-((E)-1-phenylprop-1-en-2-yl)cyclopropyl)amino)piperidin-1-yl)propanoic Acid Dihydrochloride] was run?
Answer: < 100 nM

Question: With `CCC1(NCC2CCNCC2)CC1/C(C)=C/c1ccccc1` (stereo not shown) [Compound 173, 1-ethyl-2-((E)-1-phenylprop-1-en-2-yl)-N-(piperidin-4-ylmethyl)cyclopropanamine Dihydrochloride] as the molecule, how does the IC50 (Table 6) read?
Answer: < 100 nM

Question: How did the IC50 (Table 5) turn out when `CC1(N)CC1/C=C/c1ccccc1` (stereo not shown) [Compound 112, 1-methyl-2-((E)-styryl)cyclopropanamine] was run?
Answer: 100 to 1000 nM

Question: For `CC/C(=C\c1ccccc1)[C@@H]1C[C@H]1NCc1cnc(N)nc1` (racemic) [Compound 246, 5-((((trans)-2-((E)-1-phenylbut-1-en-2-yl)cyclopropyl)amino)methyl)pyrimidin-2-amine Hydrochloride], which IC50 (Table 7) is on record?
Answer: < 100 nM

Question: How did the IC50 (Table 6) turn out when `C/C(=C\c1ccccc1)[C@@H]1C[C@H]1N[C@H]1CC[C@H](NCCC(N)=O)CC1` (single isomer, unassigned) [Compound 151, 3-(((trans)-4-(((trans)-2-((E)-1-phenylprop-1-en-2-yl)cyclopropyl)amino)cyclohexyl)amino)propanamide bis(trifluoroacetic acid) salt] was run?
Answer: < 100 nM

Question: Which IC50 (Table 6) does the source give for `CC/C(=C\c1ccccc1)[C@@H]1C[C@H]1N[C@H]1CC[C@H](NCc2c(OC)cc(C)[nH]c2=O)CC1` (single isomer, unassigned) [Compound 160, 4-methoxy-6-methyl-3-((((trans)-4-(((trans)-2-((E)-1-phenylbut-1-en-2-yl)cyclopropyl)amino)cyclohexyl)amino)methyl)pyridin-2(1H)-one bis(trifluoroacetic acid salt)] here?
Answer: < 100 nM

Question: Which IC50 (Table 7) does the source give for `CC/C(=C\c1ccccc1)[C@@H]1C[C@H]1NC1CC2(C1)CN(Cc1ccc(C(=O)O)cc1C)C2` (single isomer, unassigned) [Compound 254] here?
Answer: < 100 nM

Question: How did the IC50 (Table 6) turn out when `Fc1ccccc1/C=C/C1CC1NCC1CCNCC1` (stereo not shown) [Compound 186, (E)-2-(2-fluorostyryl)-N-(piperidin-4-ylmethyl)cyclopropan-1-amine Dihydrochloride] was run?
Answer: < 100 nM

Question: With `CC/C(=C\c1ccccc1)[C@@H]1C[C@H]1NC1CC2(C1)CN(CCC(=O)O)C2` (single isomer, unassigned) [Compound 266, 3-(6-(((1R,2S or 1S,2R)-2-((E)-1-phenylbut-1-en-2-yl)cyclopropyl)amino)-2-azaspiro[3.3]heptan-2-yl)propanoic Acid (Single Stereoisomer)] as the molecule, how does the IC50 (Table 7) read?
Answer: < 100 nM

Question: With `CC/C(=C\c1ccccc1)[C@@H]1C[C@H]1NCc1ccccc1CN` (racemic) [Compound 247, (trans)-N-(2-(aminomethyl)benzyl)-2-((E)-1-phenylbut-1-en-2-yl)cyclopropan-1-amine] as the molecule, how does the IC50 (Table 7) read?
Answer: < 100 nM

Question: For `C(=C\C1CC1NCC1CCN(Cc2ccccc2)CC1)/c1ccccc1` (stereo not shown) [Compound 106], which IC50 (Table 5) is on record?
Answer: 100 to 1000 nM

Question: For `CNC(=O)CCCN[C@H]1CC[C@@H](N[C@@H]2C[C@H]2/C(C)=C/c2ccccc2)CC1` (single isomer, unassigned) [Compound 145, N-methyl-4-(((cis)-4-(((trans)-2-((E)-1-phenylprop-1-en-2-yl)cyclopropyl)amino)cyclohexyl)amino)butanamide bis(trifluoroacetic acid) salt], which IC50 (Table 6) is on record?
Answer: < 100 nM

Question: How did the IC50 (Table 7) turn out when `CC/C(=C\c1ccccc1)[C@@H]1C[C@H]1NC1CC2(CCN(CC(C)(C)C(=O)O)CC2)C1` (racemic) [Compound 228, 2,2-dimethyl-3-(2-(((trans)-2-(E)-1-phenylbut-1-en-2-yl)cyclopropyl)amino)-7-azaspiro[3.5]nonan-7-yl)propanoic Acid Bis Trifluoroacetate] was run?
Answer: < 100 nM

Question: With `CC/C(=C\c1ccccc1)[C@@H]1C[C@H]1N[C@H]1CC[C@H](NCC2(C(=O)O)CC2)CC1` (racemic) [Compound 223, 1-((((trans)-4-(((trans)-2-((E)-1-phenylbut-1-en-2-yl)cyclopropyl)amino)cyclohexyl)amino)methyl)cyclopropane-1-carboxylic Acid] as the molecule, how does the IC50 (Table 6) read?
Answer: < 100 nM

Question: `COc1ccc(/C=C(\C)[C@@H]2C[C@H]2N)cc1` [compound 130, 2,2,2-trifluoroacetate] was tested. Which IC50 (Table 6) did it give?
Answer: 1000 to 10000 nM

Question: `C/C(=C\c1ccccc1)[C@@H]1C[C@H]1NC1CCN(Cc2ccc(C(=O)O)cn2)CC1` (racemic) [Compound 203, 6-((4-(((trans)-2-((E)-1-phenylprop-1-en-2-yl)cyclopropyl)amino)piperidin-1-yl)methyl)nicotinic Acid Dihydrochloride] was tested. Which IC50 (Table 6) did it give?
Answer: < 100 nM

Question: How did the IC50 (Table 6) turn out when `CC/C(=C\c1ccccc1)[C@@H]1C[C@H]1N[C@H]1CC[C@@H](NCC(=O)O)CC1` (racemic) [Compound 183, 2-(((cis)-4-(((trans)-2-((E)-1-phenylbut-1-en-2-yl)cyclopropyl)amino)cyclohexyl)amino)acetic Acid] was run?
Answer: < 100 nM

Question: For `CC/C(=C\c1ccccc1)[C@@H]1C[C@H]1NC[C@H]1C[C@H](N)C1` (racemic) [Compound 239], which IC50 (Table 7) is on record?
Answer: < 100 nM

Question: `CC/C(=C\c1ccccc1)[C@@H]1C[C@H]1NC[C@H]1CC[C@H](NCc2ccc(C(=O)O)cc2)CC1` (racemic) [Compound 245, 4-((((trans)-4-((((trans)-2-((E)-1-phenylbut-1-en-2-yl)cyclopropyl)amino)methyl)cyclohexyl)amino)methyl)benzoic Acid Bis Trifluoroacetate] was tested. Which IC50 (Table 7) did it give?
Answer: < 100 nM

Question: With `C/C(=C\c1ccccc1)[C@@H]1C[C@H]1NCC1CCN(CCC#N)CC1` (racemic) [Compound 135, 3-(4-((((trans)-2-((E)-1-phenylprop-1-en-2-yl)cyclopropyl)amino)methyl)piperidin-1-yl)propanenitrile dihydrochloride] as the molecule, how does the IC50 (Table 6) read?
Answer: < 100 nM

Question: `CNC(=O)c1ccc(CN2CCC(N[C@@H]3C[C@H]3/C(C)=C/c3ccccc3)CC2)cc1` (racemic) [Compound 136, N-methyl-4-((4-(((trans)-2-((E)-1-phenylprop-1-en-2-yl)cyclopropyl)amino)piperidin-1-yl)methyl)benzamide dihydrochloride] was tested. Which IC50 (Table 6) did it give?
Answer: < 100 nM
